The record followed here is ChEMBL document CHEMBL4806964, “Heterocyclic compound” (2019).

Structures are written as SMILES.

Test [1] deals with T1, CDK12/Cyclin K (Homo sapiens) (UniProt O75909+Q9NYV4). In words: Inhibition of human His-tagged CDK12/CycK using ULight-labeled eIF4E-binding protein 1 substrate at 1 uM incubated for 60 mins by fluorescence based assay relative to control. Type of test: protein-complex assay.
For another test, the system named is A2780. Put plainly: Antiproliferative activity against human A2780 cells at 1 uM by CellTiter-Glo reagent assay relative to control. Type of test: functional.
Test [2] deals with T1, CDK12/Cyclin K (Homo sapiens). In words: Inhibition of BODIPY-FL-labeled AT-7519 binding to human His-tagged CDK12/CycK assessed as BODIPY-FL-labeled AT-7519 binding by measuring fluorescence intensity at 1 uM incubated for 120 mins in presence of 3 uM BODIPY-FL-labeled AT-7519 by TR-FRET assay relative to control. Type of test: protein-complex assay.
Test [3] shares this target. Put plainly: Inhibition of human CDK12/CycK in human A2780 cells assessed as intracellular phosphorylated CTD Ser2 art 1 uM by In-Cell Western method relative to control. Type of test: cell-based.
Test [4] shares this target. Put plainly: Inhibition of BODIPY-FL-labeled AT-7519 binding to human His-tagged CDK12/CycK assessed as BODIPY-FL-labeled AT-7519 binding by measuring fluorescence intensity at 1 uM incubated for 120 mins in presence of 30 uM BODIPY-FL-labeled AT-7519 by TR-FRET assay relative to control. Type of test: protein-complex assay. A general note: In TR-FRET formats the signal depends on donor and acceptor labels being close together.

T1 sequence (O75909 whole entry, looked up): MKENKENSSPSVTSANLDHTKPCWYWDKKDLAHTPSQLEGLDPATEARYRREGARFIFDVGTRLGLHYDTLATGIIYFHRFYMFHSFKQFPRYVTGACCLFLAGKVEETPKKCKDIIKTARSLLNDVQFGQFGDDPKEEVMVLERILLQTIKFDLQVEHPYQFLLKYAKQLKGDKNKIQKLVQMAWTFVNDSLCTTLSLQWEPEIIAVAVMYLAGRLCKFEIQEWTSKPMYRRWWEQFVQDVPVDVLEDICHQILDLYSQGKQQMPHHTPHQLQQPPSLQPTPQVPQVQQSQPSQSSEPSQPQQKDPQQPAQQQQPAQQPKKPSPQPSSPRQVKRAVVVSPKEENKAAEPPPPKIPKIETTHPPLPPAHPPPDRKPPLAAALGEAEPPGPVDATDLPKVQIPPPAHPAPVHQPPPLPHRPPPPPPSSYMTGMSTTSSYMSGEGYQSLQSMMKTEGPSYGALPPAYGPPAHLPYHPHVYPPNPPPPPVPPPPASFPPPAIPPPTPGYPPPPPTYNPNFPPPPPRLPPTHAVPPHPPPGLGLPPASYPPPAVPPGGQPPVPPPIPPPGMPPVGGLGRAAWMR
T1 sequence (Q9NYV4 whole entry, looked up): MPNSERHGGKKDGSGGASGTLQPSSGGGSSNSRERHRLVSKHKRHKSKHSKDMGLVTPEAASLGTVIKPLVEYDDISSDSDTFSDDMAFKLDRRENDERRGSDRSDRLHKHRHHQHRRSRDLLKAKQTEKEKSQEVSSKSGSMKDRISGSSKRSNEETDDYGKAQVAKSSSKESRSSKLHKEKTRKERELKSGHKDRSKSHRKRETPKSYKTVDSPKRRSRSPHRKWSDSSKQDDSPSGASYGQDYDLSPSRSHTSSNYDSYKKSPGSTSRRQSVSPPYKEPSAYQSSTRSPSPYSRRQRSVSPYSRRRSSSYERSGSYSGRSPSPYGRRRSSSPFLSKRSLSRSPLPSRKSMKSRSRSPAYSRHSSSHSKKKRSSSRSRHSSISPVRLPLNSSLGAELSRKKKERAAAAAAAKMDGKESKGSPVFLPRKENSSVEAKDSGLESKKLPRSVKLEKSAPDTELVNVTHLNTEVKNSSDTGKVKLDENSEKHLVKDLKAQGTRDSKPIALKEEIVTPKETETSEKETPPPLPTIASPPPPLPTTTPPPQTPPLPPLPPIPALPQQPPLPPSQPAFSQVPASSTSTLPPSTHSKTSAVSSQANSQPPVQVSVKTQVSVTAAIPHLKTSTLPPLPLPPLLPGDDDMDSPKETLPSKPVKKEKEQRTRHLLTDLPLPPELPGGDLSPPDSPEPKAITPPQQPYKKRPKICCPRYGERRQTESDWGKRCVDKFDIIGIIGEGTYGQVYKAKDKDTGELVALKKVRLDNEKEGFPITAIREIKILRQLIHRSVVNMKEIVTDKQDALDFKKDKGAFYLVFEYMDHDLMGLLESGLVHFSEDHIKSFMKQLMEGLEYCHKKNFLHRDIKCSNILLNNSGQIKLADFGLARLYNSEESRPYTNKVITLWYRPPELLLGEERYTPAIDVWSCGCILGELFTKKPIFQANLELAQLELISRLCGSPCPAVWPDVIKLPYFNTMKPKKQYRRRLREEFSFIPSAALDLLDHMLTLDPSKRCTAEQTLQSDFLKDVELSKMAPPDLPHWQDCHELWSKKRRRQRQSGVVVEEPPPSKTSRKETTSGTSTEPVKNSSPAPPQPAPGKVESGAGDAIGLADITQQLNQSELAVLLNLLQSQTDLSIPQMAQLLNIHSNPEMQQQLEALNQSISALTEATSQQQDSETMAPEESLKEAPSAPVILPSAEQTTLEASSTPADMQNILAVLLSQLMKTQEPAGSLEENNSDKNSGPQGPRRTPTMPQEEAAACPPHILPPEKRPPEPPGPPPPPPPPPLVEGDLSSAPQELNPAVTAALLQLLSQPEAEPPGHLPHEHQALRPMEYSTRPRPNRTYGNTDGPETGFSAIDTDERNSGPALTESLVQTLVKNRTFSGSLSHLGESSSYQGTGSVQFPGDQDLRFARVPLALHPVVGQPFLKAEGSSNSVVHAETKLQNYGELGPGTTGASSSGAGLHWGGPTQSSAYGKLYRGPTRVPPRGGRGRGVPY

For orientation: inhibition means the relative decrease from the control value, in per cent. Turning to `COc1ncc(-c2cnc(N(C(=O)NCc3ccccn3)[C@H]3CC[C@H](Nc4ncc(C(F)(F)F)c(OC5COC5)n4)CC3)nc2)cn1`, the inhibition in test [1] is 99%; in test [2] it was 103%. Further, the inhibition at 1 µM with A2780 was 98%.

For the molecule `COc1ncc(-c2cnc(N(C(=O)COc3ccccc3)[C@H]3CC[C@H](Nc4ncc(C(F)(F)F)c(N5CC(C)(O)C5)n4)CC3)cn2)cn1`, the inhibition in test [2] was found to be 100%.

On to `COc1ncc(-c2cnc(N(C(=O)NCc3ccccc3)[C@H]3CC[C@H](Nc4ncc(C#N)c(N5CC(C)(O)C5)n4)CC3)nc2)cn1`, for which the inhibition in test [1] was found to be 105%; in test [2], 95%; in test [3] it was 54%. For the same molecule, the inhibition at 1 µM in the test on A2780 was determined as 94%.

Turning to `COCC(=O)N(c1cnc(-c2cnn(C)c2)cn1)[C@H]1CC[C@H](Nc2ncc(C(F)(F)F)c(-c3cncc(S(N)(=O)=O)c3)n2)CC1`, in test [4], the inhibition turned out to be 95%.

Consider `Cn1cc(-c2ccc(N(C(=O)NCc3ccccc3)[C@H]3CC[C@H](Nc4ncc(C#N)c(-c5[nH]ncc5O)n4)CC3)nc2)cn1`, for which the inhibition in test [2] came out at 96%.

For the molecule `COc1ncc(-c2cnc(N(C(=O)NCc3ccccc3)[C@H]3CC[C@H](Nc4ncc(C(F)(F)F)c(NC5COC5)n4)CC3)nc2)cn1`, the inhibition in test [2] was determined as 96%.

As for `COc1ncc(-c2cnc(N(C(=O)NCc3ccccc3)[C@H]3CC[C@H](Nc4ncc(C(F)(F)F)c(N5CC(C)(O)C5)n4)CC3)cn2)cn1`, in test [2], the inhibition was 103%.

For `COc1ncc(-c2cnc(N(C(=O)NCc3ccccc3)[C@H]3CC[C@H](Nc4ncc(C#N)c(N5CCCC(O)CC5)n4)CC3)nc2)cn1` (some centres undefined), in test [3], the inhibition was determined as 48%.

For `COCCOC(=O)N(c1cnc(-c2cnc(OC)nc2)cn1)[C@H]1CC[C@H](Nc2ncc(C(F)(F)F)c(-c3cncc(S(N)(=O)=O)c3)n2)CC1`, in test [4], the inhibition turned out to be 91%.

On to `COc1ncc(-c2cnc(N(C(=O)OCCN3CCOCC3)[C@H]3CC[C@H](Nc4ncc(C(F)(F)F)c(-c5cncc(S(N)(=O)=O)c5)n4)CC3)cn2)cn1`, for which the inhibition in test [4] was determined as 99%.

With `COc1ncc(-c2ccc(N(C(=O)COc3ccccc3)[C@H]3CC[C@H](Nc4ncc(C#N)c(OC5COC5)n4)CC3)nc2)cn1`, the inhibition in test [2] was determined as 98%.

`COCCNC(=O)N(c1cnc(-c2cnc(OC)nc2)cn1)[C@H]1CC[C@H](Nc2ncc(C(F)(F)F)c(-c3ccn(C(F)F)n3)n2)CC1`: the inhibition in test [4] is 90%.

For the molecule `COc1ncc(-c2ccc(N(C(=O)COc3ccccc3)[C@H]3CC[C@H](Nc4ncc(C#N)c(N5CCCC(O)CC5)n4)CC3)nc2)cn1` (some centres undefined), in test [2], the inhibition is 104%.

Turning to `CCCC(=O)N(c1cnc(-c2cnn(C)c2)cn1)[C@H]1CC[C@H](Nc2ncc(C(F)(F)F)c(-c3cncc(S(N)(=O)=O)c3)n2)CC1`, the inhibition in test [4] was determined as 99%.
